The values that follow come from patent US7408025B2, “Lipopeptides as antibacterial agents” (priority 1999, dated 2008).

The data set is described as follows: Acute toxicity monitoring in non-inoculated mice. It counts as in vivo, female CD-1 mice. The settings on record: not inoculated; 10 mg/kg, s.c. × 2; acute toxicity group. The procedure:
The test compound was dissolved in 10.0 ml of 50 mM phosphate buffer to give a solution of 1 mg/ml (pH=7.0). This solution was serially diluted with vehicle by 4-fold ([…]) to give 0.25, 0.063 and 0.016 mg/ml solutions. All the solutions were filtered with […] Nalgene syringe filter. Immediately after the bacterial inoculation, group 1 animals were subcutaneously (sc) injected with buffer (no test compound) and groups 2 to 5 were given test compound sc at 10.0, 2.5, 0.63, and 0.16 mg/kg, respectively. Group 6 animals received test compound sc at 10 mg/kg (or the highest therapeutic dose of a given compound) only for monitoring acute toxicity. These injections were repeated once at 4 hours after the inoculation for the respective groups. The injection volume at each time was 10 ml per kilogram of body weight. The results of the in vivo efficacy test are summarized in Table II, which provides a representative example of the results obtained for Compound 70. The 50% effective dose (ED50) is calculated on the basis of the number of mice surviving 7 days after inoculation. The ED50 was determined for other compounds of this invention in a similar manner.

As for `CCCCCCCCCC(=O)NC(Cc1c[nH]c2ccccc12)C(=O)NC(CC(N)=O)C(=O)NC(CC(=O)O)C(=O)NC1C(=O)NCC(=O)NC(CCCNC(=O)C2Cc3c([nH]c4ccccc34)CN2)C(=O)NC(CC(=O)O)C(=O)NC(C)C(=O)NC(CC(=O)O)C(=O)NCC(=O)NC(CO)C(=O)NC(C(C)CC(=O)O)C(=O)NC(CC(=O)c2ccccc2N)C(=O)OC1C` (stereo not shown) [Compound 70], the “Survival (7 days)” value is on record as 5/5.
